From EP0088602A2, “Microbiological oxidation process” (EXXON RESEARCH AND ENGINEERING COMPANY, priority 1982, dated 1983)
“And” between values parts separate entries of the source, which are not always exact repeats. Identical values can stand only once. Like-named read-outs stand apart in the source and are kept apart here.

Tests used:
[1] = tested on: Secondary Alcohol Dehydrogenase; assay: Dehydrogenation of the secondary alcohol in the coupled reaction (Example 22); format: biochemical, yeast Pichia sp.; settings: NAD^+
Experimental: The procedure of Example 15 was followed using 1.0 ml of a reaction mixture consisting of 50 µ moles potassium phosphate buffer at pH 7.0, 10 µ moles NAD^+, 10 µ moles secondary alcohol (either 2-butanol or 2-propanol), and, as the remainder, secondary alcohol dehydrogenase from yeast Pichia sp. and the soluble S(80) fraction obtained as described in Example 14. The dehydrogenase was previously purified as described in Patel et al., Eur. J. Biochem., 101, 401 (1979).

[2] = tested on: Soluble Methane Monooxygenase from Methylobacterium organophilum (ATCC 27,886); assay: Oxidation of alkanes/alkenes with NADH2 regenerated by secondary alcohol dehydrogenase (Example 22); format: biochemical
Experimental: (§1) The vials were incubated at 35°C on a reciprocating water bath shaker at 50 oscillations per minute.. The gaseous phase of the vials was evacuated by vacuum and replaced with a gaseous mixture consisting of 1:1 by volume oxygen:the alkane substrate indicated in Table XVIII, at which point the reaction was initiated.
(§2) The rate of oxidation of the alkane substrates was measured either by estimation of products formed or by amount of substrate utilized from the gas or liquid phase. In the former case, 1-2 µ 1 samples of the reaction mixture were injected into a gas chromatograph immediately after addition of substrate (zero time) and after 4 and 8 min. of incubation. Specific activities were expressed as nmoles of product formed per min. per mg of protein, with the higher number representing better conversion. If substrate utilization was the measure of oxidation rate, […] of liquid or 50 Al of gas was injected into the gas chromatograph at zero time and after 4 and 8 min. of incubation of the reaction mixture at 35°C, and specific activities were expressed as the amount of substrate utilized per min. per mg. of protein. Regardless of the procedure employed, control experiments were conducted for each substrate in the absence of NADH2, in the absence of oxygen, and using boiled extracts.
(§3) The alcohol products were identified and estimated by retention time comparisons and co-chromatography with authentic standards using flame-ionization gas chromatography. The column temperature was maintained isothermally between 80°C and 130°C with helium carrier gas flow rates of 20-40 ml per min. The amount of product formed was estimated from peak areas using a standard graph constructed using authentic compounds.
(§4) Duplicate measurements were carried out for each substrate. Protein concentrations in cellular fractions were estimated with Folin Ciocalteu reagent as described by O.H. Lowry et al., supra, using bovine serum albumin as a standard.

[3] = tested on: Soluble Methane Monooxygenase; assay: Effect of potential inhibitors on propylene oxidation by the soluble S(80) fraction (Example 9); format: biochemical, Methylobacterium organophilum (CRL.26)
Experimental: (§5) The vials were incubated at 35 °C on a reciprocating water bath shaker at 50 oscillations per minute. […]
[…] Specific activities were expressed as nmoles of product formed per min. per mg. of protein, with the higher number representing better conversion. With each substrate, control experiments were conducted in the absence of NADH2, in the absence of oxygen, and using boiled extracts.
[…] The column temperature was maintained isothermally between 80 °C and 200°C with helium carrier gas flow rates of 20-40 ml per min. The amount of product formed was estimated from peak areas using a standard graph constructed using authentic compounds.
(§6) Duplicate measurements were carried out for each substrate.

[4] = target: T1, soluble methane monooxygenase from Methylococcus capsulatus (Bath) (Methylococcus capsulatus, UniProt P22869); format: biochemical; design: host or cells: soluble fraction of Methylococcus capsulatus Strain Bath; settings: comparison with CRL.26 in Example 9
T1 sequence (P22869 whole entry): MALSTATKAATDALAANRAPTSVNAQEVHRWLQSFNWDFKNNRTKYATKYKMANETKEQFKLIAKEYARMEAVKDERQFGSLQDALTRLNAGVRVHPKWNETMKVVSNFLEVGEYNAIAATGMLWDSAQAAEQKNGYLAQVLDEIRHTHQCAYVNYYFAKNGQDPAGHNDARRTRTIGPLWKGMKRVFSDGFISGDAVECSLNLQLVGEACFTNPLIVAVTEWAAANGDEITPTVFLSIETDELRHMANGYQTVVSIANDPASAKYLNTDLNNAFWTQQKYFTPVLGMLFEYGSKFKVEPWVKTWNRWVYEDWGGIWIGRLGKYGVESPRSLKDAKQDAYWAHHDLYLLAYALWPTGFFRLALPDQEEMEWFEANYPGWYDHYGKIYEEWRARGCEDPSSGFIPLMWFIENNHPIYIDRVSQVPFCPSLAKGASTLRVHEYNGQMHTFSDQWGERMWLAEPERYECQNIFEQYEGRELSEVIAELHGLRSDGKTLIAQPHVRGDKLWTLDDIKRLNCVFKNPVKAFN
T1 sequence (P18798 whole entry, further chain): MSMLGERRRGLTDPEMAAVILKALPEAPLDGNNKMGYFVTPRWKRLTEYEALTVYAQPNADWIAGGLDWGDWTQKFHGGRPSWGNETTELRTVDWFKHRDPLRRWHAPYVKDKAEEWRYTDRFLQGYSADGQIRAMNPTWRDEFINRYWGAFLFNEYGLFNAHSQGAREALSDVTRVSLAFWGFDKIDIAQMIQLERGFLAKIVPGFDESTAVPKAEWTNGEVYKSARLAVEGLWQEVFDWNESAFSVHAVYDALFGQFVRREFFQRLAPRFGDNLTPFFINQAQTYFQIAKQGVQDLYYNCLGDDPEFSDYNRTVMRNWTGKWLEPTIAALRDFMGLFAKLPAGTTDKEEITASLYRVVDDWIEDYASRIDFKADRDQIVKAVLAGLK
T1 sequence (P11987 whole entry, further chain): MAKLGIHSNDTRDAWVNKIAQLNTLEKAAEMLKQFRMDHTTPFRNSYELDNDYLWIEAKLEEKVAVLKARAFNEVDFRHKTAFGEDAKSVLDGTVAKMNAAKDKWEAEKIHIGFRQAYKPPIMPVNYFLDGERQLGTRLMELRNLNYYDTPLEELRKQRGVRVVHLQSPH

[5] = tested on: Soluble Methane Monooxygenase from Methylobacterium organophilum (ATCC 27,886); assay: Oxidation of alkanes/alkenes with NADH2 regenerated by formate and NAD+ (Example 20); format: biochemical
Experimental: as §1, §2, §3, §4

[6] = tested on: Methane Monooxygenase from Methylobacterium sp. CRL.26; assay: Hydroxylation of alkanes / epoxidation of alkenes with NADH2 regenerated by formaldehyde dehydrogenase (Example 12, Table XV); format: biochemical
Experimental: The vials were incubated at 35 °C on a reciprocating water bath shaker at 50 oscillations per minute. The gaseous phase of the vials was evacuated by vacuum and replaced with a 1 to 1 by volume gaseous mixture of the alkane substrate indicated in Table III to oxygen, at which point the reaction was initiated.
(§7) The rate of oxidation of the alkanes was measured by injecting 1-2 µ 1 samples of the reaction mixture into a gas chromatograph immediately after addition of substrate (zero time) and after 5 and 10 min. of incubation. Specific activities were expressed as nmoles of product formed per min. per mg. of protein, with the higher number representing better conversion. With each substrate, control experiments were conducted in the absence of NADH2, in the absence of oxygen, and using boiled extracts.
as §3, with “80 °C” for “80°C”, “200°C” for “130°C”
Duplicate measurements were carried out for each substrate. Protein concentrations in cellular fractions were estimated with Folin Ciocalteu reagent as described by O.H. Lowry et al., J. Biol. Chem., 193, 265 (1951), using bovine serum albumin as a standard.

[7] = target: T1, soluble methane monooxygenase from Methylococcus capsulatus (Bath); settings: cited from earlier work
[8] = target: soluble methane monooxygenase from Methylosinus trichosporium (OB3b) (Methylosinus trichosporium, UniProt P27353); settings: cited from earlier work
Sequence of soluble methane monooxygenase from Methylosinus trichosporium (OB3b) (P27354 whole entry): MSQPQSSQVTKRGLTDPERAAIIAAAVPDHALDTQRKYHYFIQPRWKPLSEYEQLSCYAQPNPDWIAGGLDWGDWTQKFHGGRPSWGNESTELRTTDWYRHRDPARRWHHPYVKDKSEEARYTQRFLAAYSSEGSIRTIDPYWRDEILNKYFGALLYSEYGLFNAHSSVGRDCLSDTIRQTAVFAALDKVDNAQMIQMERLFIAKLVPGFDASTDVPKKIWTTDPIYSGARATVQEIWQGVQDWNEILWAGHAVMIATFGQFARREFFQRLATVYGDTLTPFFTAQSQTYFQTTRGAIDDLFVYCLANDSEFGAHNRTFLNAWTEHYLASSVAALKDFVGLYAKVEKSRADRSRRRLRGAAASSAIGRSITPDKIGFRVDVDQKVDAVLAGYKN
Sequence of soluble methane monooxygenase from Methylosinus trichosporium (OB3b) (P27355 whole entry, further chain): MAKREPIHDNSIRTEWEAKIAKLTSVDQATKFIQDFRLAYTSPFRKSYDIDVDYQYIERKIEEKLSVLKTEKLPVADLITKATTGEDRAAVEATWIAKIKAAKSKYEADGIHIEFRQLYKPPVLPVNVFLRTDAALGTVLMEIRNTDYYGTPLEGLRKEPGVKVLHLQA
Sequence of soluble methane monooxygenase from Methylosinus trichosporium (OB3b) (P27353 whole entry): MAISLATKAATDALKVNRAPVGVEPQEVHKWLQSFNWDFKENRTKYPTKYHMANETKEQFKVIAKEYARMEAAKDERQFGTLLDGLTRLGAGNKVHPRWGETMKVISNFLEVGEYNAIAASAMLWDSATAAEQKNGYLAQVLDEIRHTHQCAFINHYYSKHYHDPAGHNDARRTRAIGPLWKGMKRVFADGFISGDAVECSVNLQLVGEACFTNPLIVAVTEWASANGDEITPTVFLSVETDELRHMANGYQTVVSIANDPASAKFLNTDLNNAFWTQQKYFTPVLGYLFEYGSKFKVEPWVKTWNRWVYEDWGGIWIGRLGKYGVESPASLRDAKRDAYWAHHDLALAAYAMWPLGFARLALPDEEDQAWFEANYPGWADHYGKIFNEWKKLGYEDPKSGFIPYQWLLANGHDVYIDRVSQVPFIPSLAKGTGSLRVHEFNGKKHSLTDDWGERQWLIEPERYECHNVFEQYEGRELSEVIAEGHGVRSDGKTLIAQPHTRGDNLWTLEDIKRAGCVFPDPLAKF

[9] = tested on: Soluble Methane Monooxygenase from Methylobacterium organophilum (ATCC 27,886); assay: Hydroxylation of alkanes / epoxidation of alkenes with NADH2 regenerated by formaldehyde dehydrogenase (Example 21); format: biochemical
Experimental: as §1, §2, §3, §4

[10] = tested on: Soluble Methane Monooxygenase; assay: Effect of various cofactor systems on propylene oxidation by the soluble S(80) fraction (Examples 7, 11); format: biochemical, Methylobacterium organophilum (CRL.26); settings: propylene substrate; for Specific Activity: cofactor system at 2.5 mM; for suitability as cofactor system / electron donor (in words): replacing NADH2
Experimental: as §5, §7
as §3, with “80 °C” for “80°C”, “200°C” for “130°C”
as §6

[11] = tested on: soluble methane monooxygenase; assay: Other electron donors in place of NADH2 (Example 23); format: biochemical, Methylobacterium organophilum (ATCC 27,886); settings: as electron donor replacing NADH2 in the procedure of Example 15
Experimental: as §1, §2

[12] = inhibitor 1 mM, incubated at 0°C for 15 min, propylene substrate, percentage of control (100%) containing no inhibitor
[13] = inhibitor 1 mM, incubated at 0°C for 15 min, propylene substrate, percentage of control containing no inhibitor
[14] = inhibitor 0.1 mM, incubated at 0°C for 15 min, propylene substrate, percentage of control (100%) containing no inhibitor
[15] = inhibitor 0.1 mM, incubated at 0°C for 15 min, propylene substrate, percentage of control containing no inhibitor

Compound: 2-Butanol
- Rate of Product Formation ([1]; product 2-Butanone, substrates Ethane and 2-Butanol): 48 nmoles/ min/mg of protein
- Rate of Product Formation ([1]; product 2-Butanone, substrates Ethylene and 2-Butanol): 45 nmoles/ min/mg of protein
- Rate of Product Formation ([1]; product 2-Butanone, substrates Methane and 2-Butanol): 50 nmoles/ min/mg of protein
- Rate of Product Formation ([1]; product 2-Butanone, substrates Propane and 2-Butanol): 45 nmoles/ min/mg of protein
- Rate of Product Formation ([1]; product 2-Butanone, substrates Propylene and 2-Butanol): 50 nmoles/ min/mg of protein
- Rate of Product Formation ([2]; product Acetone, substrates Propane and 2-Butanol, NAD^+, secondary alcohol dehydrogenase): 18 nmoles/ min/mg of protein

Compound: c1cnc2c(c1)ccc1cccnc12 [1,10-Phenanthroline]
- inhibition of soluble methane monooxygenase activity (in words) [3]: not inhibited
- Activity (%) [3, 12]: 67%
- Inhibition (%) [3, 13]: 33%
- inhibited activity of Methylobacterium organophilum (CRL.26) ([3]; statement in the text of Example 9): about 30%
- inhibition of the activity of Methylococcus capsulatus (Bath) (in words) [4]: did not inhibit

Compound: C=CCC [1-Butene]
- Rate of Product Formation ([5]; pH 7): 35 nmoles/ min/mg of protein
- Rate of Product Formation ([6]; pH 7): 180 nmoles/min/mg protein

Compound: CC(C)O [2-Propanol]
- Rate of Product Formation ([1]; product Acetone, substrates Butane and 2-Propanol): 45 nmoles/ min/mg of protein
- Rate of Product Formation ([1]; product Acetone, substrates Isobutylene and 2-Propanol): 45 nmoles/ min/mg of protein
- Rate of Product Formation ([2]; product 2-Butanone, substrates Butane and 2-Propanol, NAD^+, secondary alcohol dehydrogenase): 10 nmoles/ min/mg of protein

Compound: O=C(O)c1cc(SSc2ccc([N+](=O)[O-])c(C(=O)O)c2)ccc1[N+](=O)[O-] [5,5'-dithiobis-2-nitrobenzoate]
- inhibition of soluble methane monooxygenase activity (in words) [3]: inhibit
- Activity (%) [3, 12]: 38%
- Inhibition (%) [3, 13]: 62%

Compound: Oc1cccc2cccnc12 [8-Hydroxyquinoline]
- inhibition of soluble methane monooxygenase (in words) [7]: strongly inhibits
- inhibition of soluble methane monooxygenase (in words) [8]: strongly inhibits
- Activity (%) [3]: 117%
- Inhibition (%) [3]: 0%
- inhibition of soluble methane monooxygenase activity (in words) [3]: not inhibitory

Compound: CCCC [Butane]
- Rate of Product Formation ([9]; pH 7): 20 nmoles/ min/mg of protein and 10 nmoles/ min/mg of protein
- Rate of Product Formation [2]: 15 nmoles/ min/mg of protein
- Rate of Product Formation ([6]; pH 7): 250 nmoles/min/mg protein and 150 nmoles/min/mg protein

Compound: CC [Ethane]
- Rate of Product Formation ([6]; product Ethanol, NAD^+, formaldehyde, reduced glutathione, formaldehyde dehydrogenase, pH 7.0): 145 nmoles/min/mg protein

Compound: C=C [Ethylene]
- Rate of Product Formation ([5]; pH 7): 28 nmoles/ min/mg of protein
- Rate of Product Formation ([9]; pH 7): 28 nmoles/ min/mg of protein
- Rate of Product Formation [2]: 25 nmoles/ min/mg of protein
- Rate of Product Formation ([6]; pH 7): 140 nmoles/min/mg protein

Compound: NC(=O)CI [Iodoacetamide]
- inhibition of soluble methane monooxygenase activity (in words) [3]: inhibit
- Activity (%) [3, 12]: 20%
- Inhibition (%) [3, 13]: 80%

Compound: C=C(C)C [Isobutylene]
- Rate of Product Formation ([2]; product Epoxyisobutylene, substrates Isobutylene and 2-Propanol, NAD^+, secondary alcohol dehydrogenase): 29 nmoles/ min/mg of protein

Compound: C [Methane]
- Rate of Product Formation ([6]; product Methanol, NAD^+, formaldehyde, reduced glutathione, formaldehyde dehydrogenase from Pichia sp., pH 7.0): 128 nmoles/min/mg protein

Compound: CCN1C(=O)C=CC1=O [N-Ethylmaleimide]
- Activity (%) [3, 12]: 102%
- Inhibition (%) [3, 13]: 0%

Compound: NC(=O)C1=CN([C@@H]2O[C@H](COP(=O)(O)OP(=O)(O)OC[C@H]3O[C@@H](n4cnc5c(N)ncnc54)[C@H](O)[C@@H]3O)[C@@H](O)[C@H]2O)C=CC1 [NADH2, nicotinamide adenine dinucleotide in the reduced form]
- Specific Activity [10]: 100 nmoles/min/mg of protein
- suitability as cofactor system / electron donor (in words) [10]: suitable
- soluble methane monooxygenase activity observed [11]: about 70%

Compound: NC(=O)C1=CN([C@@H]2O[C@H](COP(=O)(O)OP(=O)(O)OC[C@H]3O[C@@H](n4cnc5c(N)ncnc54)[C@H](OP(=O)(O)O)[C@@H]3O)[C@@H](O)[C@H]2O)C=CC1 [NADPH2, nicotinamide adenine dinucleotide phosphate in the reduced form]
- Specific Activity [10]: 70 nmoles/min/mg of protein
- suitability as cofactor system / electron donor (in words) [10]: suitable

Compound: CCC [Propane]
- Rate of Product Formation ([6]; product Propan-1-ol, NAD^+, formaldehyde, reduced glutathione, formaldehyde dehydrogenase, pH 7.0): 60 nmoles/min/mg protein
- Rate of Product Formation ([6]; product Propan-2-ol, NAD^+, formaldehyde, reduced glutathione, formaldehyde dehydrogenase, pH 7.0): 95 nmoles/min/mg protein

Compound: C=CC [Propylene]
- Rate of Product Formation ([5]; product Propylene Oxide, NAD^+ and sodium formate, pH 7.0): 54 nmoles/ min/mg of protein
- Rate of Product Formation ([9]; product Propylene Oxide, NAD^+, reduced glutathione, formaldehyde, formaldehyde dehydrogenase, pH 7.0): 52 nmoles/ min/mg of protein
- uninhibited rate of propylene oxidation ([3]; no inhibitor, substrate propylene): (b) The uninhibited rate of propylene oxidation was 100 nmoles of propylene oxide produced/min/mg of protein.
- Rate of Product Formation ([2]; product Propylene oxide, substrates Propylene and 2-Butanol, NAD^+, secondary alcohol dehydrogenase): 48 nmoles/ min/mg of protein
- Rate of Product Formation ([6]; product Propylene Oxide, NAD^+, formaldehyde, reduced glutathione, formaldehyde dehydrogenase, pH 7.0): 250 nmoles/min/mg protein

Compound: NNC(N)=S [Thiosemicarbazide]
- inhibition of soluble methane monooxygenase activity (in words) [3]: not inhibited
- Activity (%) [3, 12]: 108%
- Inhibition (%) [3, 13]: 0%

Compound: O=C(O)c1cc[c]([Hg+])cc1.[OH-] [p-Hydroxymercuribenzoate]
- Activity (%) [3, 14]: 100%
- Inhibition (%) [3, 15]: 0%

Compound: Acriflavin
- inhibition of soluble methane monooxygenase activity (in words) [3]: inhibit
- Activity (%) [3, 14]: 71%
- Inhibition (%) [3, 15]: 29%
